Data: ChEMBL document CHEMBL4665665, “4-Aryl Pyrrolidines as Novel Orally Efficacious Antimalarial Agents. Part 2: 2-Aryl-N-(4-arylpyrrolidin-3-yl)acetamides” (ACS Med Chem Lett, 2019)
Calls of active or inactive are those of the source. No cut-off for these calls is given here.

Columns and labels:
[1] = system: Plasmodium falciparum; assay: Antimalarial activity against CQ-sensitive Plasmodium falciparum 3D7 incubated for 72 hrs by SYBR Green-1 dye based fluorescence assay; assay type: functional, organism-based
[2] = Ratio of IC50 for antimalarial activity against CQ-sensitive Plasmodium falciparum 3D7 incubated for 72 hrs by SYBR Green-1 dye based fluorescence assay to Plasma concentration in NIH mouse infected with Plasmodium chabaudi ASS at 10 mg/kg, po qd for 4 days starting from 4 hrs post-parasite inoculation and measured at 24 hrs post-dosing on day 4 by LC/MS analysis
[3] = Plasma concentration in NIH mouse infected with Plasmodium chabaudi ASS at 10 mg/kg, po qd for 4 days starting from 4 hrs post-parasite inoculation and measured at 24 hrs post-dosing on day 4 by LC/MS analysis; assay type: ADME, organism-based; details: dose 10 mg/kg/day, time 4 day
[4] = Plasma concentration in NIH mouse infected with Plasmodium chabaudi ASS at 10 mg/kg, po qd for 4 days starting from 4 hrs post-parasite inoculation and measured at 6 hrs post-dosing on day 4 by LC/MS analysis; assay type: ADME, organism-based; details: dose 10 mg/kg/day, time 4 day
[5] = Plasma concentration in NIH mouse infected with Plasmodium chabaudi ASS at 10 mg/kg, po qd for 4 days starting from 4 hrs post-parasite inoculation and measured at 1 hr post-dosing on day 4 by LC/MS analysis; assay type: ADME, organism-based; details: dose 10 mg/kg/day, time 4 day
[6] = Apparent volume of distribution in KM mouse at 2 mg/kg, iv administered as cassette dosing measured up to 24 hrs by LC/MS analysis; assay type: ADME, organism-based; details: in vivo, read-out: Vz
[7] = Half life in KM mouse at 2 mg/kg, iv administered as cassette dosing measured up to 24 hrs by LC/MS analysis; assay type: ADME, organism-based; details: in vivo
[8] = biological target: Cytochrome P450 2C19 (Homo sapiens, UniProt P33261); assay: Inhibition of recombinant human CYP2C19 expressed in baculovirus infected insect cells using s-mephenytoin as substrate incubated for 30 mins in presence of NADPH-regenerating system by fluorescence based assay; assay type: ADME
Cytochrome P450 2C19, sequence (P33261 whole entry): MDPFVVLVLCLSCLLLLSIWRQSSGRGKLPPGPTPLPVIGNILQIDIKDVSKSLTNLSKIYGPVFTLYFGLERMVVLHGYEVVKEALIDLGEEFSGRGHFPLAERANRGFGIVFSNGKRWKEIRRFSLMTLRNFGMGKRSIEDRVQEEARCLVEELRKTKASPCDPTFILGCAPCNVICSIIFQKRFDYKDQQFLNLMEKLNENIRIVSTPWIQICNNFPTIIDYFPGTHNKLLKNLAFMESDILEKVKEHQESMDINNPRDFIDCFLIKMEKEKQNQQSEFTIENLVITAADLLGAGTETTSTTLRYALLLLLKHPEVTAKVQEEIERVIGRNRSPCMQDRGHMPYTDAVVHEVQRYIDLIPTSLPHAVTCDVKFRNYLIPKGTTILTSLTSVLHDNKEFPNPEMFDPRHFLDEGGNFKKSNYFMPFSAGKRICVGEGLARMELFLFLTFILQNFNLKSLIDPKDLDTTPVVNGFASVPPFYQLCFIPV

[9] = Apparent clearance in KM mouse at 2 mg/kg, iv administered as cassette dosing measured up to 24 hrs by LC/MS analysis; assay type: ADME, organism-based; details: in vivo
[10] = biological target: Cytochrome P450 2C9 (Homo sapiens, UniProt P11712); assay: Inhibition of recombinant human CYP2C9 expressed in baculovirus infected insect cells using tolbutamide as substrate incubated for 30 mins in presence of NADPH-regenerating system by fluorescence based assay; assay type: ADME
Cytochrome P450 2C9, sequence (P11712 whole entry): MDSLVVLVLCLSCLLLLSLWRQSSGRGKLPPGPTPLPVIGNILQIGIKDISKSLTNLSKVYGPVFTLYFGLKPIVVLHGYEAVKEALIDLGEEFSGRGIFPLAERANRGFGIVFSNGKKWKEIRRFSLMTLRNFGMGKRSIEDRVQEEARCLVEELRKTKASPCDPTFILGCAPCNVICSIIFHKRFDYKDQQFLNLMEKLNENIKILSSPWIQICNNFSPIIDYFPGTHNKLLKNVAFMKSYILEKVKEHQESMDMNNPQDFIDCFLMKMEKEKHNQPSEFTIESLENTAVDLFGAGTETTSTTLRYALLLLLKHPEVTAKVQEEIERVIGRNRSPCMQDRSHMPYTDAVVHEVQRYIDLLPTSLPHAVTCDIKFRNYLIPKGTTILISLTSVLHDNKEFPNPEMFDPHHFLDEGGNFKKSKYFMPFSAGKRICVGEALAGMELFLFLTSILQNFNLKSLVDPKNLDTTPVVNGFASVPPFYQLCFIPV

[11] = biological target: Cytochrome P450 2D6 (Homo sapiens, UniProt P10635); assay: Inhibition of recombinant human CYP2D6 expressed in baculovirus infected insect cells using dextromethorphan as substrate incubated for 30 mins in presence of NADPH-regenerating system by fluorescence based assay; assay type: ADME
Cytochrome P450 2D6, sequence (P10635 whole entry): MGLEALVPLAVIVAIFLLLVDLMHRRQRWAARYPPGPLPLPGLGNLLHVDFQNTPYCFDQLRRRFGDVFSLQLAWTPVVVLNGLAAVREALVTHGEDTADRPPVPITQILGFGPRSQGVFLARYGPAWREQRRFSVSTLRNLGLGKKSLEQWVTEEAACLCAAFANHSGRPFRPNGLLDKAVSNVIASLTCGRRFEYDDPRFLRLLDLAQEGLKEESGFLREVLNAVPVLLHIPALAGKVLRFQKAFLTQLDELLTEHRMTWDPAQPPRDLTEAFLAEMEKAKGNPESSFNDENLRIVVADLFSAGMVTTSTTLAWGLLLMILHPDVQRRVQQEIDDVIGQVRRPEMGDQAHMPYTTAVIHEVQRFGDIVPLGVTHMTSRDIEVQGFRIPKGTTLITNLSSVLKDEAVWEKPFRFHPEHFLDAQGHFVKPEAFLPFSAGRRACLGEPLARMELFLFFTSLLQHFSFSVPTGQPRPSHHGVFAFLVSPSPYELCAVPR

[12] = biological target: T1, Cytochrome P450 1A2 (Homo sapiens, UniProt P05177); assay: Inhibition of recombinant human CYP1A2 expressed in baculovirus infected insect cells using phenacetin as substrate incubated for 30 mins in presence of NADPH-regenerating system by fluorescence based assay; assay type: ADME
T1 sequence (P05177 whole entry): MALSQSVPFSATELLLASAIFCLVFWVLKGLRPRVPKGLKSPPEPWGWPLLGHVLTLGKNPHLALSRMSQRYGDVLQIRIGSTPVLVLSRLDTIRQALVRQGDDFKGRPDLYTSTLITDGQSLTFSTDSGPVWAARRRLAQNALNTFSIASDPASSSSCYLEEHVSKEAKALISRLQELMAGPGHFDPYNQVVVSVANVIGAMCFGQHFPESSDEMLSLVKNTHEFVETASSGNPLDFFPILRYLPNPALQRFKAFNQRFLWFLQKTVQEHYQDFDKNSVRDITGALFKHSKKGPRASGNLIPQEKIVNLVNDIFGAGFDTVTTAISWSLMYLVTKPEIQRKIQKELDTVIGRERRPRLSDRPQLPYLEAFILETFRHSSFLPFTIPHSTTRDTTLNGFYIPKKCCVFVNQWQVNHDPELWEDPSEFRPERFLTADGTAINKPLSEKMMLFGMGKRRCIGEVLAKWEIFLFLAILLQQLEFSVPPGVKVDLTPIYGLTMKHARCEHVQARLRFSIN

[13] = biological target: Cytochrome P450 3A4 (Homo sapiens, UniProt P08684); assay: Inhibition of recombinant human CYP3A4 expressed in baculovirus infected insect cells using midazolam as substrate incubated for 30 mins in presence of NADPH-regenerating system by fluorescence based assay; assay type: ADME
Cytochrome P450 3A4, sequence (P08684 whole entry): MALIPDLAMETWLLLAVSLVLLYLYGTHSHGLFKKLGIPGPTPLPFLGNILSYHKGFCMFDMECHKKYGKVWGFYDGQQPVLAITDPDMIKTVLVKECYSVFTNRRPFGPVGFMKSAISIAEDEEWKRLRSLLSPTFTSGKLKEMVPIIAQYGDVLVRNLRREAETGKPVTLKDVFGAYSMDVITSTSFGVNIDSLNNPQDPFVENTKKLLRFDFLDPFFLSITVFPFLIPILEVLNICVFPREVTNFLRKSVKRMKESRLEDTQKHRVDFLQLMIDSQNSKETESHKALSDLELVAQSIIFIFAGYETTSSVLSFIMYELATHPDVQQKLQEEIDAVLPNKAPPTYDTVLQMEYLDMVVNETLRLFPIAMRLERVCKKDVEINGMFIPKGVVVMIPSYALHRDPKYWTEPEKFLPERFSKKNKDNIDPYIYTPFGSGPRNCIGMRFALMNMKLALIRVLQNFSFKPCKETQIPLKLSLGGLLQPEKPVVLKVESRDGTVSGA

[14] = system: hERG; assay: Selectivity ratio of IC50 for human ERG incubated for 2 hrs by fluorescence polarization assay to IC50 for CQ-sensitive Plasmodium falciparum 3D7 incubated for 72 hrs by SYBR Green-1 dye based fluorescence assay; assay type: toxicity; details: read-out: Ratio IC50
[15] = biological target: Beta-secretase 1 (Homo sapiens) (UniProt P56817); assay: Inhibition of recombinant human BACE1 using Mca-SEVNLDAEFRK(Dnp)RR-NH2 fluorogenic peptide as substrate incubated for 60 mis by fluorescence based assay; details: time 60.0 min
Beta-secretase 1 (Homo sapiens), sequence (P56817 whole entry): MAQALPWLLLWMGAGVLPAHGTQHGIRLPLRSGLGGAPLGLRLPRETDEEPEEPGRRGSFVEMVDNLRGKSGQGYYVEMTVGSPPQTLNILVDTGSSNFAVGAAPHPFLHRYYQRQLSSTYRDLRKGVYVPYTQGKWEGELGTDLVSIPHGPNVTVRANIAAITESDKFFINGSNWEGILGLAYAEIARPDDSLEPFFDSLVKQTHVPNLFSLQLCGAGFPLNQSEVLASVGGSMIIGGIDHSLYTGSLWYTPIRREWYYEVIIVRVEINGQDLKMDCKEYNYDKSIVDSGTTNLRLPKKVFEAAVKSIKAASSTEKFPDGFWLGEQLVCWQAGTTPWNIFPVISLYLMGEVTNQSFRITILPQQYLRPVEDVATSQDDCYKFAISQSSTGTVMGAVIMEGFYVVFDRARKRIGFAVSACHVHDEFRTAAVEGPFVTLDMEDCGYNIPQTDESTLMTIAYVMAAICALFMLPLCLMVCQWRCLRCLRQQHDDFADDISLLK

[16] = biological target: Voltage-gated inwardly rectifying potassium channel KCNH2 (Homo sapiens, UniProt Q12809); assay: Displacement of Tracer Red from human ERG incubated for 2 hrs by fluorescence polarization assay
Voltage-gated inwardly rectifying potassium channel KCNH2, sequence (Q12809 whole entry): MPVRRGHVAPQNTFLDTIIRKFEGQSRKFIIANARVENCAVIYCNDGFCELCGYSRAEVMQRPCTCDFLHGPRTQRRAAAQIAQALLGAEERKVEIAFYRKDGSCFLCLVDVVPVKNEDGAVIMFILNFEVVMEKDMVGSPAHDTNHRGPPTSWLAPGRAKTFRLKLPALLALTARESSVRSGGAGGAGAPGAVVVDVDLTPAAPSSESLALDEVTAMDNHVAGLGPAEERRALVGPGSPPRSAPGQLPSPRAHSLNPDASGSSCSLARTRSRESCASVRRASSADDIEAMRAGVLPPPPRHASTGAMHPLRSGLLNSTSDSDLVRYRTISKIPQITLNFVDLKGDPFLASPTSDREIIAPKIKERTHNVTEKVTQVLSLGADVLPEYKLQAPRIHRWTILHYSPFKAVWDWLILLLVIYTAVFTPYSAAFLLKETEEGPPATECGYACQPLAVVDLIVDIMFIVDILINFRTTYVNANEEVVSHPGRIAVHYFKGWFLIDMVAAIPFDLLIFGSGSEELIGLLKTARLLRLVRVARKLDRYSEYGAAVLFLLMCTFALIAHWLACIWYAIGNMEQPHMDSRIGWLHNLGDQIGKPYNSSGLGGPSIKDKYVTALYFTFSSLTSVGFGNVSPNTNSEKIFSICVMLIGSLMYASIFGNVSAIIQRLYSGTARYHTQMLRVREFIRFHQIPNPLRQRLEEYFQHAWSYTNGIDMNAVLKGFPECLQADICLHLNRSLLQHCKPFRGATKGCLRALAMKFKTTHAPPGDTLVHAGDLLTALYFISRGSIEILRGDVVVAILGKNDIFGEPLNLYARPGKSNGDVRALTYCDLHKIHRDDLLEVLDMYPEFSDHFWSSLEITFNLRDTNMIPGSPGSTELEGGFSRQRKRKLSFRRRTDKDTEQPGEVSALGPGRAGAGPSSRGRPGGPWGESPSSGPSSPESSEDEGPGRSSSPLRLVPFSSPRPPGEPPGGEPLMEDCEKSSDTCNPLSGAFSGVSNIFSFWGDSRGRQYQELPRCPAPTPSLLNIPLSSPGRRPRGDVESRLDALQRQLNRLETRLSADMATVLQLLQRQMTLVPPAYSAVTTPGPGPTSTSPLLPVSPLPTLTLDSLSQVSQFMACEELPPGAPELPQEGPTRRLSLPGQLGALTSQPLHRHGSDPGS

[17] = system: Plasmodium falciparum; assay: Inhibition of Plasmodium falciparum plasmepsin 4 using PM-2 peptide substrate incubated for 60 mis by fluorescence based assay; details: time 60.0 min
[18] = biological target: Plasmepsin II (Plasmodium falciparum) (UniProt P46925); assay: Inhibition of Plasmodium falciparum plasmepsin 2 using PM-2 peptide substrate incubated for 60 mis by fluorescence based assay; details: time 60.0 min
Plasmepsin II (Plasmodium falciparum), sequence (P46925 125-453 limits assumed): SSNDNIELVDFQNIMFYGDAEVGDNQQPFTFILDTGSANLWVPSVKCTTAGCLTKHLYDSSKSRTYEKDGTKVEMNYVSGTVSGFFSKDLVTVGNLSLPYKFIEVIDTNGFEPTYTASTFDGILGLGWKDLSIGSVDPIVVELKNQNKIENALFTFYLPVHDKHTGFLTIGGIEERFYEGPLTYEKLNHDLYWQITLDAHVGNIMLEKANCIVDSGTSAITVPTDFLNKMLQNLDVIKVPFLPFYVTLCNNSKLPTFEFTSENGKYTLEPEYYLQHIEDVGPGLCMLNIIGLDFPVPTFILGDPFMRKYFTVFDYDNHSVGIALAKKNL

[19] = system: Plasmodium falciparum; assay: Antimalarial activity against multidrug resistant Plasmodium falciparum Dd2 incubated for 72 hrs by SYBR Green-1 dye based fluorescence assay; assay type: functional, organism-based; details: Dd2, 72 h
[20] = system: Plasmodium chabaudi; assay: Antimalarial activity against Plasmodium chabaudi ASS infected in NIH mouse assessed as inhibition of parasitemia at 10 mg/kg, po qd for 4 days starting from 4 hrs post-parasite inoculation and measured at 24 hrs after last-drug treatment by Peter's 4-day suppressive test relative to control; assay type: functional; details: 96 h
[21] = system: HepG2; assay: Cytotoxicity against human HepG2 cells assessed as cell viability at 5 uM incubated for 72 hrs by PrestoBlue cell viability reagent based assay; details: hepg2, 72 h
[22] = system: Plasmodium chabaudi; assay: Antimalarial activity against Plasmodium chabaudi ASS infected in NIH mouse assessed as inhibition of parasitemia at 30 mg/kg, po qd for 4 days starting from 4 hrs post-parasite inoculation and measured at 24 hrs after last-drug treatment by Peter's 4-day suppressive test relative to control; assay type: functional; details: 96 h
[23] = Plasmodium falciparum, 3D7, 72 h

Row | SMILES | IC50 [1, 23] | further results
1 | Nc1ccc(CC(=O)N[C@H]2CNC[C@@H]2c2ccc(C(F)(F)F)cc2)cc1 (racemic) | 2900 nM | –
2 | O=C(Cc1ccccc1)N[C@H]1CNC[C@@H]1c1ccc(C(F)(F)F)cc1 (racemic) | 2000 nM | –
3 | CN(C)c1ccc(CC(=O)N[C@@H]2CNC[C@H]2c2ccc(S(F)(F)(F)(F)F)cc2)cc1 | 91 nM | Ratio [2]: 6; concentration at 96 h [3]: 14.9 nM; concentration at 96 h [4]: 119 nM; concentration at 96 h [5]: 129 nM; Vd [6]: 6.2 L/kg; half-life [7]: 7 h; IC50 [8]: 29400 nM; clearance [9]: 10.5 mL/min/kg; IC50 [10]: 36600 nM; IC50 [11]: 90000 nM; IC50 [12]: > 100000 nM; IC50 [13]: 159 nM; selectivity ratio at 2 h [14]: 28; inhibition [15]: inactive; IC50 [16]: 2570 nM; inhibition [17]: inactive; inhibition [18]: inactive; IC50 [19]: 89 nM; inhibition in vivo at 10 mg/kg/day [20]: 65.3%; Activity [21]: Non-Toxic
4 | CN(C)c1ccc(CC(=O)N[C@@H]2CNC[C@H]2c2cc3cc(F)ccc3o2)cc1 | 270 nM | –
5 | CN(C)c1ccc(CC(=O)N[C@@H]2CNC[C@H]2c2cc3ccccc3o2)cc1 | 140 nM | –
6 | CN(C)c1ccc(CC(=O)N[C@@H]2CNC[C@H]2c2cc3cc(Cl)ccc3o2)cc1 | 1000 nM | –
7 | CN(C)c1cccc(CC(=O)N[C@H]2CNC[C@@H]2c2ccc(C(F)(F)F)cc2)c1 (racemic) | 230 nM | –
8 | CC(C)c1ccc(CC(=O)N[C@H]2CNC[C@@H]2c2ccc(C(F)(F)F)cc2)cc1 (racemic) | 600 nM | –
9 | CN(C)c1ccc(CC(=O)N[C@@H]2CNC[C@H]2c2ccc(-c3ccccc3)cc2)cc1 | 4600 nM | –
10 | CN1C[C@@H](N(C)C(=O)Cc2ccc(N(C)C)cc2)[C@H](c2ccc(C(F)(F)F)nc2)C1 (racemic) | 1400 nM | –
11 | CN(C)c1ccc(CCC(=O)N[C@H]2CNC[C@@H]2c2ccc(C(F)(F)F)cc2)cc1 (racemic) | 1400 nM | –
12 | CN(C)c1ccc(CC(=O)N[C@H]2CNC[C@@H]2c2ccc(S(F)(F)(F)(F)F)cc2)cc1 | 1200 nM | –
13 | CN(C)c1ccc(CC(=O)N[C@H]2CNC[C@@H]2c2ccc(C(F)(F)F)cc2)cc1 (racemic) | – | IC50 [1]: 96 nM
14 | CN(C)c1ccc(CC(=O)N[C@@H]2CNC[C@H]2c2ccc(C(F)(F)F)c(Cl)c2)cc1 | 120 nM | –
15 | COc1cccc(CC(=O)N[C@H]2CNC[C@@H]2c2ccc(C(F)(F)F)cc2)c1 (racemic) | 760 nM | –
16 | C[C@H](NC(=O)[C@H]1CNC[C@@H]1c1ccc(C(F)(F)F)cc1)c1ccc(N(C)C)cc1 | – | inhibition in vivo at 30 mg/kg/day [22]: 92.2%
17 | CN(C)c1ccc(CC(=O)N[C@H]2CNC[C@@H]2c2ccc(C(F)(F)F)nc2)cc1 (racemic) | 210 nM | –
18 | CN(C)c1ccc(CC(=O)N[C@@H]2CNC[C@H]2c2ccc(C(C)(F)F)nc2)cc1 | 60 nM | –
19 | CCN(CC)CCCC(C)Nc1ccnc2cc(Cl)ccc12 (stereo unspecified) [CHLOROQUINE] | – | concentration at 96 h [3]: 68.6 nM; concentration at 96 h [4]: 83.4 nM; concentration at 96 h [5]: 80.7 nM; inhibition in vivo at 10 mg/kg/day [20]: 99.9%

Row | SMILES | IC50 [1, 23] | further results
20 | CN(C)c1ccc(CC(=O)N[C@@H]2CNC[C@H]2c2ccc(C(C)(C)C)cc2)cc1 | 120 nM | –
21 | Cc1cccc(CC(=O)N[C@H]2CNC[C@@H]2c2ccc(C(F)(F)F)cc2)c1 (racemic) | 370 nM | –
22 | CN(C)c1ccc(CC(=O)N[C@@H]2CNC[C@H]2c2ccc(C(F)(F)C(F)(F)F)cc2)cc1 | 140 nM | –
23 | Cc1ccc(CC(=O)N[C@H]2CNC[C@@H]2c2ccc(C(F)(F)F)cc2)nc1 (racemic) | 1600 nM | –
24 | CN(C)c1ccc(CNC(=O)[C@H]2CNC[C@@H]2c2ccc(C(F)(F)F)nc2)cc1 (racemic) | 250 nM | –
25 | COc1ccc(CC(=O)N[C@H]2CNC[C@@H]2c2ccc(C(F)(F)F)cc2)nc1 (racemic) | 3600 nM | –
26 | Cc1ccc(CC(=O)N[C@H]2CNC[C@@H]2c2ccc(C(F)(F)F)cc2)cn1 (racemic) | 3700 nM | –
27 | CN(C)c1ccc(CC(=O)N[C@H]2CNC[C@@H]2c2ccc(C(C)(F)F)cc2)cc1 | 440 nM | –
28 | CN(C)c1ccc(CC(=O)N[C@@H]2CNC[C@H]2c2ccc(C(F)(F)C(F)(F)F)nc2)cc1 | 63 nM | –
29 | CN(C)c1ccc(CNC(=O)[C@H]2CNC[C@@H]2c2ccc(C(F)(F)F)cc2)cc1 (racemic) | 190 nM | –
30 | COc1ccc(CC(=O)N[C@H]2CNC[C@@H]2c2ccc(C(F)(F)F)cc2)cc1 (racemic) | 350 nM | –
31 | CN(C)c1ccc(CC(=O)N[C@@H]2CNC[C@H]2c2cccc(S(F)(F)(F)(F)F)c2)cc1 | 59 nM | –
32 | CN(C)c1ccc(CC(=O)N[C@@H]2CNC[C@H]2c2cc3ccccc3s2)cc1 | 150 nM | –
33 | C[C@@H]1CC[C@H]2[C@@H](C)C(=O)O[C@@H]3O[C@@]4(C)CC[C@@H]1[C@]32OO4 [ARTEMISININ] | 33 nM | –
34 | CN(C)c1ccc(CC(=O)N[C@H]2CNC[C@@H]2c2ccc(C(F)(F)F)cc2)cc1 | – | IC50 [1]: 860 nM
35 | CN(C)c1ccc(CC(=O)N[C@@H]2CNC[C@H]2c2ccc(Br)cc2)cc1 | 140 nM | –
36 | Cc1ccc(CC(=O)N[C@H]2CNC[C@@H]2c2ccc(C(F)(F)F)cc2)cc1 (racemic) | 230 nM | –
37 | COc1ccc(CC(=O)N[C@H]2CNC[C@@H]2c2ccc(C(F)(F)F)cc2)cn1 (racemic) | 2200 nM | –
38 | CN(C)c1ccc(CC(=O)N(C)[C@@H]2CNC[C@H]2c2ccc(C(F)(F)F)cc2)cc1 | 200 nM | –
